Here are results for 1 compound from US20030133923A1, “Composition for preventing the formation and enhancing the breakdown of bezoars in animals and humans” (priority 2001, published 2003).

A short description of this test: In vitro breakdown of a feline hairball under simulated stomach conditions (pH 3.0, 100° F., 24 hours). The conditions noted are these: for % enhanced break down: versus 0% Tween-80; for Hair clump wt: hairball 1.0-1.1 g. Here is the method: Tween 80 (lot#1373A, Uniqema, Wilmington, Del.) was dissolved in 150 ml acidified water (pH 3.0) at a concentration of 0%, 5%, 10%, 15%, and 20%. A feline hairball (1.0-1.1 g) was then added to each of the five solutions. The mixtures were incubated at 100° F. for 24 hours. After incubation, hair lumps (defined as hair not floating free in the liquid) was removed and the liquid was strained through cheesecloth. Free hair and hair lumps were then dried and weighed.

Regarding `CCCCCCCC/C=C\CCCCCCCC(=O)OCCOCC(OCCO)C1OCC(OCCO)C1OCCO` (centres unmarked) [Tween-80], the Free hair wt is listed as 0.1606 g (5% Tween-80, pH 3.0, 100° F.); 0.2576 g (10% Tween-80, pH 3.0, 100° F.); 0.1980 g (15% Tween-80, pH 3.0, 100° F.); 0.2480 g (20% Tween-80, pH 3.0, 100° F.). In addition, the “Free hair wt (% total wt)” value is 20.38% (5% Tween-80, pH 3.0, 100° F.); 53.78% (10% Tween-80, pH 3.0, 100° F.); 47.86% (15% Tween-80, pH 3.0, 100° F.); 51.99% (20% Tween-80, pH 3.0, 100° F.). In addition, the “Hair clump wt (% total wt)” value is, setting by setting: (5% Tween-80, pH 3.0, 100° F.) 79.62%; (10% Tween-80, pH 3.0, 100° F.) 46.22%; (15% Tween-80, pH 3.0, 100° F.) 52.14%; (20% Tween-80, pH 3.0, 100° F.) 48.00%. For the same compound, the “% enhanced break down” value reads like this: (5% Tween-80, pH 3.0, 100° F.) 5%; (10% Tween-80, pH 3.0, 100° F.) 35%; (15% Tween-80, pH 3.0, 100° F.) 35%; (20% Tween-80, pH 3.0, 100° F.) 35%. Also, the Hair clump wt is 0.6273 g (5% Tween-80 in 150 ml acidified water pH 3.0, 100° F.); 0.2214 g (10% Tween-80 in 150 ml acidified water pH 3.0, 100° F.); 0.2157 g (15% Tween-80 in 150 ml acidified water pH 3.0, 100° F.); 0.2290 g (20% Tween-80 in 150 ml acidified water pH 3.0, 100° F.).
